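Growth conditions: 96-well plates. Treatment: test compound, 48 hours, 5 concentrations. Analysis: linear interpolation between bracketing concentrations; unreached endpoints set to highest concentration. GI50 is the concentration that inhibits growth by half. TGI: concentration producing complete growth inhibition.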
How the values were obtained:
Assay in all cases: NCI-60 cell line screen, 48 h
786-0 renal = tested on: 786-0 renal
NCI-H460 lung = tested on: NCI-H460 lung
OVCAR-4 ovarian = tested on: OVCAR-4 ovarian
OVCAR-8 ovarian = tested on: OVCAR-8 ovarian
HL-60(TB) leukemia = tested on: HL-60(TB) leukemia
UACC-257 melanoma = tested on: UACC-257 melanoma
SNB-19 CNS = tested on: SNB-19 CNS
OVCAR-5 ovarian = tested on: OVCAR-5 ovarian
SF-295 CNS = tested on: SF-295 CNS
MDA-MB-468 breast = tested on: MDA-MB-468 breast
A549 NSCLC = tested on: A549 NSCLC
HOP-92 NSCLC = tested on: HOP-92 NSCLC
HCT-116 colon = tested on: HCT-116 colon
MDA-MB-231 breast = tested on: MDA-MB-231 breast
SW-620 colon = tested on: SW-620 colon
SK-MEL-28 melanoma = tested on: SK-MEL-28 melanoma
RPMI-8226 leukemia = tested on: RPMI-8226 leukemia
UACC-62 melanoma = tested on: UACC-62 melanoma
BT-549 breast = tested on: BT-549 breast
KM12 colon = tested on: KM12 colon
T-47D breast = tested on: T-47D breast
NCI-H23 lung = tested on: NCI-H23 lung
EKVX NSCLC = tested on: EKVX NSCLC
HCT-15 colon = tested on: HCT-15 colon
SF-539 CNS = tested on: SF-539 CNS
M14 melanoma = tested on: M14 melanoma
OVCAR-3 ovarian = tested on: OVCAR-3 ovarian
SK-MEL-5 melanoma = tested on: SK-MEL-5 melanoma
SK-OV-3 ovarian = tested on: SK-OV-3 ovarian
RXF 393 renal = tested on: RXF 393 renal
HS 578T breast = tested on: HS 578T breast
TK-10 renal = tested on: TK-10 renal
MOLT-4 leukemia = tested on: MOLT-4 leukemia
HT29 colon = tested on: HT29 colon
NCI-H226 lung = tested on: NCI-H226 lung
DU-145 prostate = tested on: DU-145 prostate
NCI/ADR-RES ovarian = tested on: NCI/ADR-RES ovarian
CCRF-CEM leukemia = tested on: CCRF-CEM leukemia
SN12C renal = tested on: SN12C renal
SNB-75 CNS = tested on: SNB-75 CNS
IGROV1 ovarian = tested on: IGROV1 ovarian
UO-31 renal = tested on: UO-31 renal
A498 renal = tested on: A498 renal
COLO 205 colon = tested on: COLO 205 colon
MALME-3M melanoma = tested on: MALME-3M melanoma
HOP-62 NSCLC = tested on: HOP-62 NSCLC
SK-MEL-2 melanoma = tested on: SK-MEL-2 melanoma
MCF7 breast = tested on: MCF7 breast
U251 CNS = tested on: U251 CNS
HCC-2998 colon = tested on: HCC-2998 colon
SF-268 CNS = tested on: SF-268 CNS
PC-3 prostate = tested on: PC-3 prostate
ACHN renal = tested on: ACHN renal
CAKI-1 renal = tested on: CAKI-1 renal
SR leukemia = tested on: SR leukemia
NCI-H522 lung = tested on: NCI-H522 lung
MDA-MB-435 = tested on: MDA-MB-435
LOX IMVI melanoma = tested on: LOX IMVI melanoma
K-562 leukemia = tested on: K-562 leukemia

Molecule Cc1ccc(C(=O)NCCCNc2nc(Nc3ccc(N4CCN(C)CC4)cc3)nc3ccsc23)cc1 has a GI50 (786-0 renal) of 2.02 µM, a TGI (786-0 renal) of 6.3 µM and a GI50 (NCI-H460 lung) of 3.75 µM. The TGI (NCI-H460 lung) was 14 µM, the GI50 (OVCAR-4 ovarian) was 3.45 µM and the TGI (OVCAR-4 ovarian) was 15 µM. For the same molecule, the GI50 (OVCAR-8 ovarian) was 3 µM, the TGI (OVCAR-8 ovarian) was 11.7 µM and the GI50 (HL-60(TB) leukemia) was 1.99 µM. It also gave a TGI (HL-60(TB) leukemia) of 4.52 µM, a GI50 (UACC-257 melanoma) of 2.2 µM and a TGI (UACC-257 melanoma) of 6.2 µM. It also gave a GI50 (SNB-19 CNS) of 10.2 µM, a TGI (SNB-19 CNS) of 22.2 µM and a GI50 (OVCAR-5 ovarian) of 11 µM. The TGI (OVCAR-5 ovarian) was 25.5 µM, the GI50 (SF-295 CNS) was 2.68 µM and the TGI (SF-295 CNS) was 7.7 µM. For the same molecule, the GI50 (MDA-MB-468 breast) was 1.3 µM, the TGI (MDA-MB-468 breast) was 4.45 µM and the GI50 (A549 NSCLC) was 3.99 µM. For the same molecule, the TGI (A549 NSCLC) was 16.3 µM, the GI50 (HOP-92 NSCLC) was 2.23 µM and the TGI (HOP-92 NSCLC) was 10.4 µM. It also gave a GI50 (HCT-116 colon) of 2.62 µM, a TGI (HCT-116 colon) of 10.2 µM and a GI50 (MDA-MB-231 breast) of 3.17 µM. It also gave a TGI (MDA-MB-231 breast) of 10.7 µM, a GI50 (SW-620 colon) of 2.63 µM and a TGI (SW-620 colon) of 8 µM. It also gave a GI50 (SK-MEL-28 melanoma) of 2.18 µM, a TGI (SK-MEL-28 melanoma) of 4.64 µM and a GI50 (RPMI-8226 leukemia) of 2.02 µM. The TGI (RPMI-8226 leukemia) was 6.4 µM, the GI50 (UACC-62 melanoma) was 1.98 µM and the TGI (UACC-62 melanoma) was 4.21 µM. The GI50 (BT-549 breast) was 2.46 µM, the TGI (BT-549 breast) was 7.15 µM and the GI50 (KM12 colon) was 4.02 µM. The TGI (KM12 colon) was 15.8 µM, the GI50 (T-47D breast) was 2.25 µM and the TGI (T-47D breast) was 7.62 µM. For the same molecule, the GI50 (NCI-H23 lung) was 5.59 µM, the TGI (NCI-H23 lung) was 20.5 µM and the GI50 (EKVX NSCLC) was 10.2 µM. It also gave a TGI (EKVX NSCLC) of 22.3 µM, a GI50 (HCT-15 colon) of 2.54 µM and a TGI (HCT-15 colon) of 11.2 µM. It also gave a GI50 (SF-539 CNS) of 1.73 µM, a TGI (SF-539 CNS) of 3.42 µM and a GI50 (M14 melanoma) of 2.14 µM. For the same molecule, the TGI (M14 melanoma) was 4.77 µM, the GI50 (OVCAR-3 ovarian) was 3.08 µM and the TGI (OVCAR-3 ovarian) was 10.9 µM. For the same molecule, the GI50 (SK-MEL-5 melanoma) was 1.84 µM, the TGI (SK-MEL-5 melanoma) was 4.08 µM and the GI50 (SK-OV-3 ovarian) was 10.8 µM. The TGI (SK-OV-3 ovarian) was 24 µM, the GI50 (RXF 393 renal) was 1.47 µM and the TGI (RXF 393 renal) was 3.71 µM. The GI50 (HS 578T breast) was 2.55 µM, the TGI (HS 578T breast) was 18.3 µM and the GI50 (TK-10 renal) was 3.14 µM. The TGI (TK-10 renal) was 9.36 µM, the GI50 (MOLT-4 leukemia) was 1.8 µM and the TGI (MOLT-4 leukemia) was 4.89 µM. The GI50 (HT29 colon) was 2.06 µM, the TGI (HT29 colon) was 5.96 µM and the GI50 (NCI-H226 lung) was 4.79 µM. It also gave a TGI (NCI-H226 lung) of 19.4 µM, a GI50 (DU-145 prostate) of 5.89 µM and a TGI (DU-145 prostate) of 19.2 µM. For the same molecule, the GI50 (NCI/ADR-RES ovarian) was 3.11 µM, the TGI (NCI/ADR-RES ovarian) was 11.4 µM and the GI50 (CCRF-CEM leukemia) was 1.87 µM. The TGI (CCRF-CEM leukemia) was over 100 µM, the GI50 (SN12C renal) was 7.19 µM and the TGI (SN12C renal) was 20.7 µM. For the same molecule, the GI50 (SNB-75 CNS) was 1.91 µM, the TGI (SNB-75 CNS) was 12.1 µM and the GI50 (IGROV1 ovarian) was 4.4 µM. For the same molecule, the TGI (IGROV1 ovarian) was 17 µM, the GI50 (UO-31 renal) was 3.57 µM and the TGI (UO-31 renal) was 15.3 µM. It also gave a GI50 (A498 renal) of 12.3 µM, a TGI (A498 renal) of 24.9 µM and a GI50 (COLO 205 colon) of 2.35 µM. For the same molecule, the TGI (COLO 205 colon) was 5.43 µM, the GI50 (MALME-3M melanoma) was 1.79 µM and the TGI (MALME-3M melanoma) was 3.27 µM. It also gave a GI50 (HOP-62 NSCLC) of 10.3 µM, a TGI (HOP-62 NSCLC) of 23.4 µM and a GI50 (SK-MEL-2 melanoma) of 4.33 µM. The TGI (SK-MEL-2 melanoma) was 16.5 µM, the GI50 (MCF7 breast) was 3.22 µM and the TGI (MCF7 breast) was 11.4 µM. It also gave a GI50 (U251 CNS) of 2.78 µM, a TGI (U251 CNS) of 11.1 µM and a GI50 (HCC-2998 colon) of 3.44 µM. It also gave a TGI (HCC-2998 colon) of 9.5 µM, a GI50 (SF-268 CNS) of 2.46 µM and a TGI (SF-268 CNS) of 17.9 µM. The GI50 (PC-3 prostate) was 3.33 µM, the TGI (PC-3 prostate) was 14.8 µM and the GI50 (ACHN renal) was 3.99 µM. The TGI (ACHN renal) was 15 µM, the GI50 (CAKI-1 renal) was 3.3 µM and the TGI (CAKI-1 renal) was 14.1 µM. For the same molecule, the GI50 (SR leukemia) was 1.69 µM, the TGI (SR leukemia) was 4.71 µM and the GI50 (NCI-H522 lung) was 2.21 µM. It also gave a TGI (NCI-H522 lung) of 5.86 µM, a GI50 (MDA-MB-435) of 4.31 µM and a TGI (MDA-MB-435) of 15.5 µM. For the same molecule, the GI50 (LOX IMVI melanoma) was 1.71 µM, the TGI (LOX IMVI melanoma) was 3.86 µM and the GI50 (K-562 leukemia) was 1.74 µM. For the same molecule, the TGI (K-562 leukemia) was 18.4 µM.

Reference: PubChem BioAssay (NCI)
